Measurements from PubChem BioAssay AID2060895 (Molecular Pharmacology Branch, DTP, NCI, 2025).

Tested on: PDC 899932-113-R3-J6 complex spheroid viability
Experiment: Anticancer human tumor 899932-113-R3-J6-PDC patient-derived melanoma cell line growth inhibition [RAS]
Details: for IC50: curve of first compound; for viability, T/C: stronger effect = lower value
How it was run: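 Agents were tested in combination matrices in half-log decrements from a top concentration at or near clinical Cmax (10 microM if undetermined). Targets were multi-cell spheroids of tumour lines plus HUVEC and MSC stromal cells.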

[1] = second compound 0.00316 µM, first compound 0.0316 µM
[2] = second compound 0.00316 µM, first compound 0.1 µM
[3] = second compound 0.00316 µM, first compound 0.316 µM
[4] = second compound 0.00316 µM, first compound 1 µM
[5] = second compound 0.01 µM, first compound 0.0316 µM
[6] = second compound 0.01 µM, first compound 0.1 µM
[7] = second compound 0.01 µM, first compound 0.316 µM
[8] = second compound 0.01 µM, first compound 1 µM
[9] = second compound 0.0316 µM, first compound 0.0316 µM
[10] = second compound 0.0316 µM, first compound 0.1 µM
[11] = second compound 0.0316 µM, first compound 0.316 µM
[12] = second compound 0.0316 µM, first compound 1 µM
[13] = second compound 0.1 µM, first compound 0.0316 µM
[14] = second compound 0.1 µM, first compound 0.1 µM
[15] = second compound 0.1 µM, first compound 0.316 µM
[16] = second compound 0.1 µM, first compound 1 µM
[17] = second compound 0.316 µM, first compound 0.0316 µM
[18] = second compound 0.316 µM, first compound 0.1 µM
[19] = second compound 0.316 µM, first compound 0.316 µM
[20] = second compound 0.316 µM, first compound 1 µM
[21] = second compound 1 µM, first compound 0.0316 µM
[22] = second compound 1 µM, first compound 0.1 µM
[23] = second compound 1 µM, first compound 0.316 µM
[24] = second compound 1 µM, first compound 1 µM
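For viability, T/C in this document: spheroids exposed to agents for seven days before readout; 100% = DMSO vehicle control wells.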

## CC(=O)OC12COC1CC(O)C1(C)C(=O)C(O)C3=C(C)C(OC(=O)C(O)C(NC(=O)OC(C)(C)C)c4ccccc4)CC(O)(C(OC(=O)c4ccccc4)C21)C3(C)C (centres undefined) + C=CC(=O)N1CCN(c2nc(OCC3CCCN3C)nc3c(F)c(-c4nc(N)cc(C)c4C(F)(F)F)c(Cl)cc23)C(C)C1
Second compound 0.00316 µM
  IC50: < 31.6 nM
Second compound 0.01 µM
  IC50: < 31.6 nM
Second compound 0.0316 µM
  IC50: < 31.6 nM
Second compound 0.1 µM
  IC50: < 31.6 nM
Second compound 0.316 µM
  IC50: < 31.6 nM
Second compound 1 µM
  IC50: < 31.6 nM
[1]
  viability, T/C: 30.5%
[2]
  viability, T/C: 30.6%
[3]
  viability, T/C: 40%
[4]
  viability, T/C: 46.4%
Second compound 0.00316 µM, first compound 3.16 µM
  viability, T/C: 69.7%
Second compound 0.00316 µM, first compound 10 µM
  viability, T/C: 82.1%
[5]
  viability, T/C: 31.2%
[6]
  viability, T/C: 36.1%
[7]
  viability, T/C: 39.6%
[8]
  viability, T/C: 57.3%
Second compound 0.01 µM, first compound 3.16 µM
  viability, T/C: 49.5%
Second compound 0.01 µM, first compound 10 µM
  viability, T/C: 76.6%
[9]
  viability, T/C: 31%
[10]
  viability, T/C: 43.6%
[11]
  viability, T/C: 42.2%
[12]
  viability, T/C: 48.4%
Second compound 0.0316 µM, first compound 3.16 µM
  viability, T/C: 68.3%
Second compound 0.0316 µM, first compound 10 µM
  viability, T/C: 60.8%
[13]
  viability, T/C: 34.5%
[14]
  viability, T/C: 37.2%
[15]
  viability, T/C: 34.2%
[16]
  viability, T/C: 50.4%
Second compound 0.1 µM, first compound 3.16 µM
  viability, T/C: 73.6%
Second compound 0.1 µM, first compound 10 µM
  viability, T/C: 74%
[17]
  viability, T/C: 27.6%
[18]
  viability, T/C: 34.3%
[19]
  viability, T/C: 44.8%
[20]
  viability, T/C: 47.1%
Second compound 0.316 µM, first compound 3.16 µM
  viability, T/C: 75.1%
Second compound 0.316 µM, first compound 10 µM
  viability, T/C: 79%
[21]
  viability, T/C: 31.5%
[22]
  viability, T/C: 37.1%
[23]
  viability, T/C: 38.8%
[24]
  viability, T/C: 51%
Second compound 1 µM, first compound 3.16 µM
  viability, T/C: 68.5%
Second compound 1 µM, first compound 10 µM
  viability, T/C: 69.2%

## Nc1ccn(C2OC(CO)C(O)C2(F)F)c(=O)n1 (centres undefined) + C=CC(=O)N1CCN(c2nc(OCC3CCCN3C)nc3c(F)c(-c4nc(N)cc(C)c4C(F)(F)F)c(Cl)cc23)C(C)C1
Second compound 0.00316 µM
  IC50: 19.4 nM
Second compound 0.01 µM
  IC50: 19.3 nM
Second compound 0.0316 µM
  IC50: 21.2 nM
Second compound 0.1 µM
  IC50: 22.2 nM
Second compound 0.316 µM
  IC50: 19.1 nM
Second compound 1 µM
  IC50: 17.4 nM
Second compound 0.00316 µM, first compound 0.00316 µM
  viability, T/C: 98.2%
Second compound 0.00316 µM, first compound 0.01 µM
  viability, T/C: 68.9%
[1]
  viability, T/C: 37.3%
[2]
  viability, T/C: 20.8%
[3]
  viability, T/C: 23.6%
[4]
  viability, T/C: 25.7%
Second compound 0.01 µM, first compound 0.00316 µM
  viability, T/C: 97.5%
Second compound 0.01 µM, first compound 0.01 µM
  viability, T/C: 73.5%
[5]
  viability, T/C: 32.8%
[6]
  viability, T/C: 20%
[7]
  viability, T/C: 24.9%
[8]
  viability, T/C: 22.6%
Second compound 0.0316 µM, first compound 0.00316 µM
  viability, T/C: 99.3%
Second compound 0.0316 µM, first compound 0.01 µM
  viability, T/C: 74.4%
[9]
  viability, T/C: 38.5%
[10]
  viability, T/C: 18.3%
[11]
  viability, T/C: 20.9%
[12]
  viability, T/C: 24%
Second compound 0.1 µM, first compound 0.00316 µM
  viability, T/C: 106%
Second compound 0.1 µM, first compound 0.01 µM
  viability, T/C: 86%
[13]
  viability, T/C: 34%
[14]
  viability, T/C: 23.8%
[15]
  viability, T/C: 21.7%
[16]
  viability, T/C: 23.2%
Second compound 0.316 µM, first compound 0.00316 µM
  viability, T/C: 98.9%
Second compound 0.316 µM, first compound 0.01 µM
  viability, T/C: 73%
[17]
  viability, T/C: 32.4%
[18]
  viability, T/C: 22.6%
[19]
  viability, T/C: 24.1%
[20]
  viability, T/C: 26.3%
Second compound 1 µM, first compound 0.00316 µM
  viability, T/C: 97.1%
Second compound 1 µM, first compound 0.01 µM
  viability, T/C: 64.2%
[21]
  viability, T/C: 35.5%
[22]
  viability, T/C: 21.9%
[23]
  viability, T/C: 17.9%
[24]
  viability, T/C: 24.3%
